ChEMBL document CHEMBL4699527, “Chemical Constituents from the Aerial Parts of Elsholtzia ciliata and Their Protective Activities on Glutamate-Induced HT22 Cell Death” (J Nat Prod, 2020)

Test system: HT-22
Assay: Neuroprotective activity against glutamate-induced cell death in mouse HT-22 cells assessed as increase in cell viability after 24 hrs by EZ-Cytox assay
Assay type: functional, cell-based
Details: HT-22, 24 h

| Structure (SMILES) | EC50 [µM] |
| --- | --- |
| COc1cc(/C=C/C(=O)NC[C@H](O)c2ccc(O)cc2)ccc1O | 32.3 |
| OC[C@H]1O[C@@H](OCc2ccccc2)[C@H](O)[C@@H](O)[C@@H]1O | > 100 |
| O=C(O)/C=C\c1ccc(O)cc1 | > 100 |
| O=C(/C=C/c1ccc(O)c(O)c1)O[C@@H]1C[C@](O)(C(=O)O)C[C@@H](OC(=O)/C=C/c2ccc(O)c(O)c2)[C@H]1O | > 100 |
| COc1c(O)c(OC)c2c(=O)cc(-c3ccccc3)oc2c1OC | 43.6 |
| COc1ccc(-c2cc(=O)c3c(O)cc(O[C@@H]4O[C@H](CO[C@@H]5O[C@@H](C)[C@H](O)[C@@H](O)[C@H]5O)[C@@H](O)[C@H](O)[C@H]4O[C@@H]4O[C@H](COC(C)=O)[C@@H](O)[C@H](O)[C@H]4O)cc3o2)cc1 | > 100 |
| COc1ccc(-c2cc(=O)c3c(O)cc(O[C@@H]4O[C@H](CO[C@@H]5O[C@@H](C)[C@H](OC(C)=O)[C@@H](O)[C@H]5O)[C@@H](O)[C@H](O)[C@H]4O)cc3o2)cc1 | > 100 |
| CC(C)=CCC/C(C)=C\CO[C@@H]1O[C@H](CO)[C@@H](O)[C@H](O)[C@H]1O | > 100 |
| O=C(O)/C=C/C=C/c1ccc(O)c(O[C@@H]2O[C@H](COC(=O)/C=C/c3ccc(O)c(O)c3)[C@@H](O)[C@H](O)[C@H]2O)c1 | 56.2 |
| O=C1C[C@@H](c2ccc(O)c(O)c2)Oc2c1ccc(O)c2O | 6.2 |
| O=C1/C=C/c2ccc(O)c(c2)O[C@@H]2O[C@H](COC(=O)/C=C/c3cc(O)c(O)cc3C1)[C@@H](O)[C@H](O)[C@H]2O | 8.3 |
| O=C(/C=C/c1ccc(O)cc1)c1ccc(O[C@@H]2O[C@H](CO)[C@@H](O)[C@H](O)[C@H]2O)cc1O | 72 |
| O=C(/C=C/c1ccc(O)c(O)c1)O[C@H]1CC[C@@H](O)[C@H]1O | > 100 |
| COc1ccc(/C=C/C(=O)c2ccc(O[C@@H]3O[C@H](CO)[C@@H](O)[C@H](O)[C@H]3O)cc2O)cc1O | 63.4 |
| COc1ccc(-c2cc(=O)c3c(O)cc(O[C@@H]4O[C@H](CO[C@@H]5O[C@@H](C)[C@H](OC(C)=O)[C@@H](O)[C@H]5O)[C@@H](O)[C@H](O)[C@H]4O[C@@H]4O[C@H](COC(C)=O)[C@@H](O)[C@H](OC(C)=O)[C@H]4O)cc3o2)cc1 | > 100 |
| COc1ccc(-c2cc(=O)c3c(O)cc(O[C@@H]4O[C@H](CO[C@@H]5O[C@@H](C)[C@H](OC(C)=O)[C@@H](O)[C@H]5O)[C@@H](O)[C@H](O)[C@H]4O[C@@H]4O[C@H](COC(C)=O)[C@@H](O)[C@H](O)[C@H]4O)cc3o2)cc1 | > 100 |
| COc1ccc(/C=C/C(=O)c2ccc(O[C@@H]3O[C@H](CO)[C@@H](O)[C@H](O)[C@H]3O)c(O)c2O)cc1O | 4.7 |
| COc1ccc(/C=C/C(=O)c2ccc(O)cc2O)cc1O | 35.2 |
| COc1ccc(-c2cc(=O)c3c(O)cc(O[C@@H]4O[C@H](CO[C@@H]5O[C@@H](C)[C@H](OC(C)=O)[C@@H](O)[C@H]5O)[C@@H](O)[C@H](O)[C@H]4O[C@@H]4O[C@H](CO)[C@@H](O)[C@H](O)[C@H]4O)cc3o2)cc1 | 69.7 |

| Structure (SMILES) | EC50 [µM] |
| --- | --- |
| CC(=O)/C=C/c1ccc(O)c(O[C@@H]2O[C@H](COC(=O)/C=C/c3ccc(O)c(O)c3)[C@@H](O)[C@H](O)[C@H]2O)c1 | 62.2 |
| COc1ccc(-c2cc(=O)c3c(O)cc(O[C@@H]4O[C@H](CO[C@@H]5O[C@@H](C)[C@H](O)[C@@H](OC(C)=O)[C@H]5O)[C@@H](O)[C@H](O)[C@H]4O[C@@H]4O[C@H](COC(C)=O)[C@@H](O)[C@H](O)[C@H]4O)cc3o2)cc1 | > 100 |
| CC(=O)/C=C/c1ccc(O)c(O)c1 | 1.5 |
| O=Cc1ccc(O)cc1 [4-HYDROXYBENZALDEHYDE] | 33.2 |
| COc1ccc(-c2cc(=O)c3c(O)cc(O[C@@H]4O[C@H](CO[C@@H]5O[C@@H](C)[C@H](O)[C@@H](O)[C@H]5O)[C@@H](O)[C@H](O)[C@H]4O)cc3o2)cc1 [ACACIIN] | 69.3 |
| CC(=O)N[C@@H](CS)C(=O)O [ACETYLCYSTEINE] | 700 |
| O=c1cc(-c2ccc(O)cc2)oc2cc(O)cc(O)c12 [APIGENIN] | > 100 |
| O=c1cc(-c2ccc(O)cc2)oc2cc(O[C@@H]3O[C@H](CO)[C@@H](O)[C@H](O)[C@H]3O)cc(O)c12 [APIGETRIN] | > 100 |
| O=C(O)/C=C/c1ccc(O)c(O)c1 [CAFFEIC ACID] | 77.1 |
| O=C(O)/C=C/c1ccc(O)cc1 [COUMARIC ACID] | 6.4 |
| COc1ccc(-c2cc(=O)c3c(O)cc(O)cc3o2)cc1O [DIOSMETIN] | 59.7 |
| CCOC(=O)/C=C/c1ccc(O)c(O)c1 [ETHYL CAFFEATE] | 1.9 |
| COc1cc2oc(-c3ccccc3)cc(=O)c2c(O)c1OC [MOSLOFLAVONE] | 23.4 |
| O=C(O)c1ccc(O)cc1 [PARABEN] | > 100 |
| O=C(O)c1ccc(O)c(O)c1 [PROTOCATECHUIC ACID] | > 100 |
| O=C(/C=C/c1ccc(O)c(O)c1)O[C@H](Cc1ccc(O)c(O)c1)C(=O)O [ROSMARINIC ACID] | 86 |
| O=C1/C(=C/c2ccc(O)c(O)c2)Oc2cc(O)ccc21 [SULFURETIN] | 3.5 |
| COc1cc(C(=O)O)ccc1O [VANILLIC ACID] | 27.8 |
